For data set [1], the target named is N-terminal site of human recombinant ACE (Homo sapiens, UniProt P12821). Nature of the data set: Inhibition constants with respect to the N-terminal site of ACE (quenched-fluorescence substrate). In kind it is biochemical. The note with it: first HPLC fraction; substrate Mca-Ala-Ser-Asp-Lys-DpaOH; 25° C., pH 6.8, 50 mM HEPES, 10 mM CaCl2, 200 mM NaCl. The source says:
(§1) Human recombinant ACE is used for this determination. Curves of inhibition of ACE with pseudopeptides A to G are obtained using the quenched-fluorescence substrate Mca-Ala: Mca-Ala-Ser-Asp-Lys-DpaOH (Mca: […]; DpaOH: N-3-(2,4-dinitrophenyl)-L-2,3-diaminopropionyl).
(§2) The first fraction collected during the purification of each of the pseudopeptides A to G by HPLC (peak 1 of FIG. 2 for pseudopeptide G) is used for these tests.
(§3) From the inhibition profiles obtained with this substrate, for each pseudopeptide A to G, it is possible to determine the constants Ki N and Ki C by following the procedure described by Dive et al..
(§4) The inhibition experiments were performed at 25° C., pH 6.8, 50 mM HEPES, 10 mM, CaCl2, 200 mM NaCl.

For data set [2], the target named is C-terminal site of human recombinant ACE (Homo sapiens, UniProt P12821). Nature of the data set: Inhibition constants with respect to the C-terminal site of ACE (quenched-fluorescence substrate). The note with it: first HPLC fraction; substrate Mca-Ala-Ser-Asp-Lys-DpaOH; 25° C., pH 6.8, 50 mM HEPES, 10 mM CaCl2, 200 mM NaCl. In kind it is biochemical.
Text: as §1, §2, §3, §4

For a further data set, the target named is ACE (Homo sapiens, UniProt P12821). Nature of the data set: Inhibitory power of HPLC-isolated diastereoisomers/fractions with respect to ACE. In kind it is biochemical. The following applies: HPLC-isolated diastereoisomer / first fraction (peak 1). From the text: In this figure, 4 peaks corresponding to the 4 diastereoisomers present in pseudopeptide G are observed (these 4 peaks have an identical mass spectrum, mass observed MH^+=618.23, expected mass=617.23).

Data set [3] has as its system conversion of angiotensin I into angiotensin II. Nature of the data set: In vivo cleavage of angiotensin I to angiotensin II in mice. The following applies: perfusion over 30 minutes, C57BL6/J mice. The method, then: (§5) This study is performed on batches of male C57BL6/J mice (Iffa Credo) weighing 20 to 23 g each, each batch comprising 6 mice.
(§6) To do this, the mice are anaesthetized by means of an intraperitoneal administration of sodium pentobarbital (Sanofi) at a dose of 80 mg/kg of body weight. The right carotid artery is isolated and a catheter (PE10, 0.28×0.61, A-M Systems, Inc.) is inserted into this artery to allow the withdrawal of blood samples, while another catheter (FEP, 0.12×0.67, Carnegie Medecin) is inserted into the ipsilateral jugular vein to allow the administration of the substances. Throughout the experiment, the body temperature of the mice is maintained at 38° C. […]
(§7) Samples of arterial blood, of about 50 μl, are withdrawn 30, 60 and 90 seconds after injection of the angiotensin I mixture or of the bradykinin mixture to the mice that received these mixtures, and 1, 5, 10 and 15 minutes after the start of injection of the Ac-SDKP mixture to the mice that received the latter mixture. […] The exact amounts of blood withdrawn are determined by reweighing the tubes. […]

A further data set concerns cleavage of bradykinin. Nature of the data set: In vivo cleavage (protection) of bradykinin in mice. The following applies: 10 mg/kg of body weight; protection with perindopril arbitrarily set at 100%; C57BL6/J mice. The method, then: as §5, §6, §7
In data set [4] the test system is cleavage of the peptide Ac-SDKP. Nature of the data set: In vivo cleavage of the peptide Ac-SDKP in mice. The following applies: 10 mg/kg of body weight, versus saline control. The method, then: as §5, §6, §7
For data set [5] the following is noted: rats; cited from earlier work.
For data set [6] the following is noted: mice; cited from earlier work.
The subject of data set [7] is degradation of the peptide N-acetyl Ser-Asp-Lys-Pro (Ac-SDKP). The note with it: mice, reference [9]; cited from earlier work.

Structures are written as SMILES. Like-named read-outs stand apart in the source and are kept apart here.

N-terminal site of human recombinant ACE, sequence (P12821 30-1306): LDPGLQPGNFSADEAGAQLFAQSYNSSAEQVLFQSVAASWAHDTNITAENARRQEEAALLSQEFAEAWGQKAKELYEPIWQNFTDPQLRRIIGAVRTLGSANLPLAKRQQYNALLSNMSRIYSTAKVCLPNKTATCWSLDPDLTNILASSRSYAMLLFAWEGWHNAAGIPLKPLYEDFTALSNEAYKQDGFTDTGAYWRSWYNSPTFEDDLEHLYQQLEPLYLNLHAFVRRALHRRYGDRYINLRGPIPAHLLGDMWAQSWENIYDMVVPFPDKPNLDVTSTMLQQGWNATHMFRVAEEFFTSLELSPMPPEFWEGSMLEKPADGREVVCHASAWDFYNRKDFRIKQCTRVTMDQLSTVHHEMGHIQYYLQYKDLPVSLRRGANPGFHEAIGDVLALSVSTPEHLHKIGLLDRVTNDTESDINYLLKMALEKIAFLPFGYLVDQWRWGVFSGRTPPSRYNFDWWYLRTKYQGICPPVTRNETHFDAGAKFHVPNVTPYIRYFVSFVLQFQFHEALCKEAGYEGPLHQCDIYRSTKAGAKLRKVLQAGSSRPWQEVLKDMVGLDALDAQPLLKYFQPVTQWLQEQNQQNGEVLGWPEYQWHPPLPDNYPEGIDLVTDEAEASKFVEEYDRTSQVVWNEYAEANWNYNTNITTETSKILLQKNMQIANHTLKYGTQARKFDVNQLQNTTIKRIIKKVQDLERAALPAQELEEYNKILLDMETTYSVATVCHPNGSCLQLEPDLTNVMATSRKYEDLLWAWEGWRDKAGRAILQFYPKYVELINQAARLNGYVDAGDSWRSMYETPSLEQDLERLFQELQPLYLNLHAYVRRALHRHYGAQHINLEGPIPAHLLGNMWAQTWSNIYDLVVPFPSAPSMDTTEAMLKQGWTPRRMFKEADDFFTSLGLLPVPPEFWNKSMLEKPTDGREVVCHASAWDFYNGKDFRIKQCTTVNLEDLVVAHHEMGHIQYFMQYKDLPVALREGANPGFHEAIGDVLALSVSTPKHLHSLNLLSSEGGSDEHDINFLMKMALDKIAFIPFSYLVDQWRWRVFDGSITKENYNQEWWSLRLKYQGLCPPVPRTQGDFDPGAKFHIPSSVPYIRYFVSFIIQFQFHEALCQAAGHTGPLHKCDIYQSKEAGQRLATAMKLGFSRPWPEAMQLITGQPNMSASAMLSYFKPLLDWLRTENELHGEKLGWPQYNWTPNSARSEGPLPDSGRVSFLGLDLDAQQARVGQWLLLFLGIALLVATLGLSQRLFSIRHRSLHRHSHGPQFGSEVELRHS
C-terminal site of human recombinant ACE, sequence (P12821 30-1306): as above
ACE, sequence (P12821 30-1306): as above

As a reminder, the Ki is the dissociation constant of the complex between target and ligand, obtained from inhibition or displacement. Turning to `CC(NC(=O)CCP(=O)(O)C(Cc1ccccc1)NC(=O)OCc1ccccc1)C(=O)O` (centres unmarked) [Pseudopeptide A, reference compound], the Ki in data set [1] and in data set [2] was 0.0008 µM each time.
Consider `CC(NC(=O)C1CCCC1P(=O)(O)C(Cc1ccccc1)NC(=O)OCc1ccccc1)C(=O)O` (centres unmarked) [Pseudopeptide B], for which the Ki in data set [1] is 0.45 µM; in [2] it was 0.02 µM. Besides, the “inhibitory power with respect to ACE” value on ACE was “capable of inhibiting ACE”.
For `O=C(NC(Cc1ccccc1)P(=O)(O)C1CCCC1C(=O)N1CCCC1C(=O)O)OCc1ccccc1` (centres unmarked) [Pseudopeptide C], in that order: 0.06 µM, 0.004 µM and “capable of inhibiting ACE”.
For `N=C(N)NCCCC(NC(=O)C1CCCC1P(=O)(O)C(Cc1ccccc1)NC(=O)OCc1ccccc1)C(=O)O` (centres unmarked) [Pseudopeptide D], in that order: 0.2 µM, 0.009 µM and “capable of inhibiting ACE”.
For `CC(NC(=O)OCc1ccccc1)P(=O)(O)C1CCCC1C(=O)NC(CCCc1c[nH]c2ccccc12)C(=O)O` (centres unmarked) [Pseudopeptide E], in that order: 8 µM, 0.06 µM and “capable of inhibiting ACE”.
On to `O=C(NC(CCc1ccccc1)P(=O)(O)C1CCCC1C(=O)NC(CCCc1c[nH]c2ccccc12)C(=O)O)OCc1ccccc1` (centres unmarked) [Pseudopeptide F], for which the Ki in data set [1] came to 8 µM; in [2], 0.06 µM. Moreover, the “inhibitory power with respect to ACE” value against ACE is “capable of inhibiting ACE”.
As to `O=C(NC(Cc1ccccc1)P(=O)(O)C1CCCC1C(=O)NC(Cc1c[nH]c2ccccc12)C(=O)O)OCc1ccccc1` (centres unmarked) [Pseudopeptide G], the values for the inhibition constant Ki in data set [1] and in [2] were 10 µM and 0.003 µM, respectively. Moreover, the results for the “reduction of the angiotensin II/angiotensin I ratio measured in the control mice” value in [3] (0.9 mg/kg of body weight) and in data set [3] (30 mg/kg of body weight) were 50% and 90%, respectively. In addition, the “degree of protection of bradykinin” value with cleavage of bradykinin is 9.2%. The “effect on the cleavage of the peptide Ac-SDKP” value in [4] (C57BL6/J mice) is listed as “no significant effect”. The “inhibitory power with respect to ACE” value at ACE is “shows inhibitory power”.
Take `CC(=O)N[C@@H](CC(=O)O)C(=O)N[C@@H](Cc1ccccc1)P(=O)(O)C[C@@H](C)C(=O)N[C@@H](C)C(N)=O` [RXP407]: the “increase of the plasmatic content of Ac-SDKP relative to control mice” value in [4] (mice) is 16 fold. Further, the metabolism in vivo result in data set [5] and in data set [6] was “not metabolized” in each case. For the same compound, the “inhibition of the degradation of Ac-SDKP in vivo” value in [7] is recorded as “capable of inhibiting the degradation”.
As to `CCC[C@H](N[C@@H](C)C(=O)N1[C@H](C(=O)O)C[C@@H]2CCCC[C@@H]21)C(=O)OCC` [perindopril, reference compound], the “degree of protection of bradykinin” value in the data set with cleavage of bradykinin is 100%.

Source of the values: patent US7105483B2, “Phosphinic pseudopeptide derivatives for the selective inhibition of the C-terminal active site of angiotensin I converting enzyme (ACE)” (Commissariat a l'Energie Atomique, priority 2002, dated 2006).
